Experiments:
[1] = tested on: MDA-MB-231 triple-negative breast cancer cell line; test: MTT assay, co-treatment of peptide with anticancer agent; format: cell-based; conditions: for cell proliferation on co-treatment with paclitaxel compared to paclitaxel alone: MDA-MB-231, 1 μM peptide + 5.4 nM paclitaxel (FIGS. 3 and 4)
Procedure: To confirm the cytotoxic and anti-proliferative effect of a peptide discovered in the present invention on cancer cells and normal cells, a 3-(4,5-diemthylthiazolyl-2)-2,5-diphenyltetrazolium bromide (MTT) assay was performed. The MTT assay is a method of measuring the growth of living cells and measuring cell viability using MTT reduction by mitochondrial reductase in living cells.
In addition, peptides and anticancer agents were administered together to the MDA-MB-231 triple-negative breast cancer cell line to explore effects associated with drug co-administration and drug resistance. Triple-negative (ER−/PR−/HER2−) breast cancer is a type of breast cancer that is difficult to treat because it is known to have drug resistance to existing hormone therapy and anticancer drugs, and is a suitable model for research on drug resistance and co-administration.
Cell viability was evaluated by an MTT assay by treating MDA-MB-231 cells with 1 μM of the peptide (No. 1 or 2), and 9 μM abemaciclib or 5.4 nM paclitaxel.

[2] = tested on: matrix metallopeptidase 9 (MMP-9); test: MMP-9 expression by RT-PCR; format: cell-based; conditions: MDA-MB-231, 1 μM peptide, 24 hours, vs control (FIG. 6)
Procedure: MDA-MB-231 cells were cultured and treated with 1 μM of a peptide (No. 1 or 2). After 24 hours, RNA was isolated from the cells and the expression level of matrix metallopeptidase 9 (MMP-9), which is a key cell migration factor, was confirmed through RT-PCR.

[3] = tested on: extracellular signal-regulated kinase (ERK) protein; test: p-ERK level by Western blot; format: cell-based; conditions: MDA-MB-231, 1 μM peptide, 24 hours, vs control (FIG. 7)
Procedure: In addition, the change in phosphorylation of extracellular signal-regulated kinase (ERK) protein caused by an anticancer peptide was confirmed. ERK gene is an indicator of drug resistance and inhibition of the growth and apoptosis of cancer cells. The MDA-MB-231 cells were cultured and treated with 1 μM of a peptide (No. 1 or 2). After 24 hours, proteins were isolated from the cells, and a p-ERK level was confirmed by Western blot.

[4] = tested on: lamin B1 protein; test: Lamin B1 cleavage by western blotting (apoptosis marker); format: cell-based; conditions: MDA-MB-231, 1 μM peptide, 24 hours, nuclear fraction western blotting (FIG. 8)
Procedure: Next, to confirm the relationship between the anticancer peptide and apoptosis, the degree of cleavage of lamin B1 protein was confirmed. Lamin B1 is originally a type of nuclear protein that is degraded by caspase in apoptosis and used as a biomarker of apoptosis. The MDA-MB-231 cells were cultured and treated with 1 μM of a peptide (No. 1 or 2). After 24 hours, the cells were washed with PBS twice, and lysed with lysis buffer containing NP-40. The nucleus and cytoplasm were separated by centrifugation, and western blotting was performed on each nuclear and cytoplasmic fraction. Here, to determine the degree of separation of the nucleus and cytoplasm, α-tubulin, which is a cytoplasmic marker, and lamin B1 were simultaneously analyzed.

[5] = tested on: MDA-MB-231 xenograft tumor; test: Xenograft tumor model, tumor size; format: in vivo, BALB/c nude mice; conditions: 2.5 mg/kg intraperitoneally daily, 6 weeks, vs PBS control (FIG. 9)
Procedure: A xenograft tumor model was constructed by injecting MDA-MB-231 cells into immunodeficient BALB/c nude mice and forming tumors for 1 week. Mice with tumors were randomly divided into a control and an experimental group. The control and the experimental group were intraperitoneally injected daily with PBS (the same volume as a peptide) and the No. 1 peptide (2.5 mg/kg), respectively, and then observed for a total of 6 weeks. During the experimental period, a tumor size was measured with a digital caliper every week, and the final tumor size was compared at week 6.

Row | expression of MMP-9 [2] | Sequence | cell proliferation on co-treatment with paclitaxel compared to paclitaxel alone [1] | cell proliferation on co-treatment with abemaciclib compared to abemaciclib alone ([1]; MDA-MB-231, 1 μM peptide + 9 μM abemaciclib (FIG. 4)) | p-ERK level [3] | cleavage of lamin B1 protein [4] | tumor growth (tumor size) [5]
1 | significantly reduced | EQAEEERYFR (listed as Homo sapiens) [No. 2] | further inhibited | further inhibited | significantly reduced | cleaved | 
2 | significantly reduced | EKAEEDRYFR (listed as Mus musculus) [No. 1] | further inhibited |  | significantly reduced | cleaved | significant tumor growth inhibitory effect

— patent US20240293500A1, “PEPTIDE HAVING ANTICANCER ACTIVITY, AND USE THEREOF” (Korea University Research and Business Foundation, priority 2021, published 2024)
